# Test system: TNFα production
# Assay: Inhibition of the production of TNFα in vivo (Test Examples 2 and 2′)
# Conditions: Table 9′; Balb/c mice, oral administration 30 minutes before intravenous lipopolysaccharide, plasma TNFα 1 hour after LPS
# Procedure: This test was performed according to the method of Ochalski, et al. [S. J. Ochalski, D. A. Hartman, M. T. Belfast, T. L. Walter, K. B. Glaser and R. P. Carlson; Inhibition of endotoxin-induced hypothermia and serum TNF-α levels in CD-1 mice by various pharmacological agents: Agents Actions 39, C52–C54 (1993)].
# The production of TNFα was induced in mice by the intravenous injection of lipopolysaccharide (E. coli O26: B6 origin, Difco) which was prepared to a concentration of 0.045 mg/ml using physiological saline. The saline preparation of lipopolysaccharide was administered at the rate of 10 ml/l kg of body weight into the caudal vein of Balb/c mice (males, age 5–7 weeks, body weight: approx. 22 g, Japan Charles River) which had been fasted overnight starting on the day before the experiment. One hour after administration, the mice were laparotomized under ether anaesthesia and blood was collected from the abdominal vena cava. Blood collection was performed using a 1 ml volume disposable syringe equipped with a 23G needle which had been moistened with heparin on the inside wall. Following blood collection, the blood was immediately transferred to a 1.5 ml volume Eppendorf tube and centrifuged at 4° C. and 14,000 rpm to separate the plasma. This plasma was then stored at −20° C. until measurement of TNFα. The measurement of the amount of TNFα was performed with a commercially available enzyme immunoassay (ELISA) kit (Mouse TNFα ELISA KIT, Genzyme).
# To determine the inhibitory activity of the test compounds, each test compound was suspended in a 0.5% tragacanth solution and then administered orally to the Balb/c mice at the rate of 10 ml/1 kg of body weight 30 minutes before injection of lipopolysaccharide. The level of TNFα production was then determined as described above. In the control group, 0.5% tragacanth solution was administered at the rate of 10 ml/1 kg of body weight to the test mice instead of the solutions of the test compounds. A minimum of 3 dose levels of the test compound was administered to groups of 5 test mice for each test compound. The inhibitory rate relative to the control group was calculated for each dose level. From the inhibitory rates and the dosages, ID50 values were calculated by the least squares method.
# The production of TNFα was induced in mice by the intravenous injection of lipopolysaccharide (E. coli O26: B6 origin, Difco) which was prepared to a concentration of 0.045 mg/ml using physiological saline. […]
# To determine the inhibitory activity of the test compounds, each test compound was suspended in a 0.5% tragacanth solution and then administered orally to the Balb/c mice at the rate of 10 ml/1 kg of body weight 30 minutes before injection of lipopolysaccharide. The level of TNFα production was then determined as described above. […]
structure (smiles),measurement,value
"CC1C[C@H]2C=C(c3c[nH]c(-c4ccc(F)cc4)c3-c3ccncc3)CCN2C1 (stereo partly drawn) [Example 16′, 2-(4-Fluorophenyl)-4-[(8aS)-2-methyl-1,2,3,5,6,8a-hexahydroindolizin-7-yl]-3-(pyridin-4-yl)1H-pyrrole]",Inhibitory Effect on TNFα Production (in vivo) IC50,0.71 mg/kg
